From PMC8878047 (Pharmaceutics, 2022) come the findings set out here.

Converted amounts (≈) assume the structure as drawn.

For data set [1] the following is noted: rat, in vivo, po.
Data set [2] is described as follows: Water solubility by UV-Vis (Lambert–Beer law). Format: physicochemical. The settings on record: thermodynamic from solid, saturated aqueous solution, 30× dilution, room temperature / 35 °C (method). The text has this: We diluted this solution into a series of working solutions to measure their UV-Vis spectra.
The subject of the next data set is Proteus vulgaris. In words: In vitro antibacterial activity (MIC/MBC, doubling dilution). The class given is cell-based. The following applies: P. vulgaris, 37 °C, 24 h. Here is the method: (§1) The clinically typical pathogens (Staphylococcus aureus, Escherichia coli, Pseudomonas aeruginosa, Salmonellosis typhoidal and Proteus vulgaris) were obtained from the Department of Microbiology and Immunology of Guangxi Medical University. We cultured the bacterial suspension of five pathogens in bouillon culture-medium at 37 °C, and diluted it into 0.5 McFarland Standard with bioclean normal saline (the volume ratio of each bacterial suspension and bioclean normal saline was 1:1000, and the concentration of bacterial suspension was 1~2 × 10^8 CFU/mL). […] We carried out the assays for MIC and MBC evaluation by doubling the dilution under sterile operation on the clean bench. To be specific, we set the sterile test tubes numbered 1–10 for comparison according to the half-dilution method. We added the broth medium to each test tube to fix the final volume to be 2 mL. […] Then, we filled each tube with 50 μL of inoculated bacteria colony, except for tube no. 9, which was the negative control. The final colony concentration in each test tube was 2 × 10^5 CFU/mL. Tube no. 10 was set as a blank without the tested drug. […] We repeated all tests in triplicate.

The subject of the next data set is Staphylococcus aureus. The data set is described as above. The class given is cell-based. The following applies: S. aureus, 37 °C, 24 h. On the procedure: as §1
Another data set has as its system Pseudomonas aeruginosa. The description is as above. Format: cell-based. The settings on record: P. aeruginosa, 37 °C, 24 h. On the procedure:
as §1

The subject of the next data set is KM mice. The class given is in vivo. The following applies: high-dose group, dead mice, HE staining. Here is the method:
After the acute toxicity test, the dead mice after oral administration and the surviving mice at the end of the observation period were promptly dissected and pathologically examined. […] We dissected the important organs (heart, liver, spleen, lung, kidney, large intestine, and small intestine) of dead mice and normal mice in the high-dose group of each drug solution. Then, the main organs were fixed in 10% buffered formalin and embedded in paraffin for 1–4 h. They were histopathologically examined under the optical microscope after slicing and staining with hematoxylin-eosin (HE) staining. No fixed parameters were compared between the treatment and control groups.

In data set [1] (male, SD), `CCN1CCN(c2cc3c(cc2F)c(=O)c(C(=O)O)cn3C2CC2)CC1` [EFX, enrofloxacin, reference compound] returned a Cl of 0.6167 mL/min/kg and a Vd of 1.05316 L/kg. Moreover, the Tmax in data set [1] amounted to 1 H. The same molecule yielded a solubility in data set [2] of 204 µg/mL (≈ 568 µM). For the same molecule, in the data set on Proteus vulgaris, the minimum bactericidal concentration (MBC) turned out to be 0.125 µg/mL (≈ 0.348 µM) and the minimal inhibitory concentration (MIC) stood at 0.125 µg/mL (≈ 0.348 µM). Further, in the data set with Staphylococcus aureus, the MBC was found to be 0.25 µg/mL (≈ 0.696 µM) and the minimum inhibitory concentration (MIC) turned out to be 0.25 µg/mL (≈ 0.696 µM). In the data set on Pseudomonas aeruginosa, the MBC worked out at 0.125 µg/mL (≈ 0.348 µM) and inhibition of growth (MIC) required 0.125 µg/mL (≈ 0.348 µM).
Consider `CCN1CCN(c2cc3c(cc2F)c(=O)c(C(=O)[O-])cn3C2CC2)CC1.CCN1CCN(c2cc3c(cc2F)c(=O)c(C(=O)[O-])cn3C2CC2)CC1.O.O.O.O.[Ca+2]` [EFX-Ca, [Ca(EFX)2(H2O)4]·H2O], for which, in the data set with KM mice, the “histopathological finding in kidney tissue” value is “enlargement of the renal capsule” and the “histopathological finding in lung tissue” value is on record as “significant inflammatory cell infiltration of the lung tissue”.

Usually solubility stands for how much of the substance goes into solution per volume. Higher therefore signals much dissolved substance. By MBC is commonly meant the lowest tested concentration that kills the bacteria rather than only halting them. Low values mean more potent killing, high ones less potent killing. Broadly, the MIC is the least concentration at which growth counts as inhibited.
